Source: PubChem BioAssay AID1918941 (Molecular Pharmacology Branch, DTP, NCI, 2023)

Tested on: SW 1271 complex spheroids, viability
Experiment: Anticancer human tumor SW 1271 cell line growth inhibition [LSD1];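 note: spheroids exposed to agents for 7 days before luminescence read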;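 for viability, T/C: 100% = DMSO vehicle control viability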
Conditions: for IC50: curve of first compound; for viability, T/C: stronger effect = lower value
Excerpt: Multicellular complex tumor spheroid response to LSD1 Inhibitor Iadademstat in combination with a variety of drugs and investigational agents in selected tumor cell lines
The current study was undertaken to assess response to LSD1 inhibitors in combination with standard-of-care drugs and investigational agents in solid tumor complex spheroid models as well as in the K-562 leukemia. Complex spheroids include a stromal component modeled by human endothelial cells (HUVEC) and fibroblasts modeled by human mesenchymal stem cells (MSCs). The concentration ranges selected for each drug and investigational agent were based upon clinically achievable concentrations if the clinical Cmax of the agent was known.
Compounds. The drugs and investigational agents used in this study are listed on Table 1. All of the agents used, including staurosporine (NSC755774) and gemcitabine (NSC613327), were obtained from the Developmental Therapeutics Program, NCI. FDA-approved anticancer drugs are available from the NCI at http://dtp.nci.nih.gov/branches/dscb/oncology_drugset_explanation.html. Drugs and investigational agents were >95% pure by proton nuclear magnetic resonance (NMR) and liquid chromatography/mass spectrometry (LC/MS). Stock solutions were prepared at 400x in DMSO, stored at -70 degrees C, and diluted in fresh medium prior to their use. The final concentration of DMSO in cell culture wells never exceeded 0.25% (v/v). The FDA-approved anticancer drug set is available from the Developmental Therapeutics Program at https://dtp.cancer.gov/organization/dscb/obtaining/available_plates.htm. All drugs and investigational agents were tested over a range starting from a high concentration at or near the clinical Cmax and decreasing in half-log increments. If the clinical Cmax for an agent had not been determined, the highest concentration tested was 10 microM.
Cell Lines. The patient-derived cancer cell (PDC) lines: 292921-168-R-J2-PDC, K24384-001-R-PDC, and 521955-158-R2-J5-PDC pancreatic carcinomas, 556581-035-R-J1 ovarian carcinoma, 324938-238-R-J1-PDC, 855422-203-R-J1-PDC and 883617-216-R-J1-PDC urothelial bladder carcinomas, 743489-274-T-PDC renal cell carcinoma, 138582-R-J1 Merkel cell tumor, K60290-347-R-J1 and K57222-313-R-J1-PDC glioblastomas, 653999-131-R-J2-PDC, LG0703-F948-PDC, and 349418-098-R-PDC non-small cell lung carcinomas, 885512-296-R-J2-PDC, 171881-019-R-J1-PDC breast carcinomas and 186277-243-T-J2-PDC and 233499-124-R-J2-PDC colon carcinomas were obtained from the NCI Patient-Derived Models Repository (PDMR, https://pdmr.cancer.gov). The established cell lines NCI/ADR-RES (RRID:CVCL_14520 and OVCAR-5 (RRID:CVCL_1628) ovarian carcinomas, 786-O (RRID:CVCL_1051) and A498 (RRID:CVCL_A498) renal cell carcinoma, NCI-H211 (ATCC, cat. CRL-5824; RRID:CVCL_1529), NCI-H196 (ATCC, cat. CRL-5823, RRID:CVCL_1509), SW 1271 (ATCC, cat. CRL-2177, RRID:CVCL_1716) and NCI-H1876 (ATCC, cat. CRL-5902, RRID:CVCL_1503) small cell lung carcinomas, MDA-MB-231 (RRID:CVCL_0062) and MDA-MB-468 (RRID:CVCL_0419)breast carcinomas (10-12). Pooled donor human umbilical vein endothelial cells (HUVEC, Lonza, cat. CC-2519) and human mesenchymal stem cells (hMSC, Lonza, cat. PT-2501) were purchased from Lonza (Walkersville, MD).
Cell Culture. All cells were maintained in an incubator at 37 degrees C and 5% CO2 with 95% humidity. The PDC lines were cultured according to standard operating procedures established by the NCI PDMR (https://pdmr.cancer.gov). Briefly all PDCs were thawed and cultured in Matrigel-coated flasks prepared with a working solution of 1X Ham's F-12 nutrient mix, without supplementation (Invitrogen, Waltham, MA, cat. 11765054), 100 U/mL penicillin-streptomycin (Invitrogen, cat. 15140122), and 2.5% Matrigel (Corning Inc., Corning, NY, cat. 354248) for the first three passages. […]

## CC(C)CC(NC(=O)CNC(=O)c1cc(Cl)ccc1Cl)B1OC(=O)CC(CC(=O)O)(C(=O)O)O1 (stereo not given) + NC1CC1c1ccc(-c2cccc(O)c2)cc1
Second compound 0.1 µM
  IC50: 4.86 nM
Second compound 0.316 µM
  IC50: 4.67 nM
Second compound 1 µM
  IC50: 4.38 nM
Second compound 3.16 µM
  IC50: 3.94 nM
Second compound 10 µM
  IC50: 4.36 nM
Second compound 0.1 µM, first compound 0.000316 µM
  viability, T/C: 86.8%
Second compound 0.1 µM, first compound 0.001 µM
  viability, T/C: 83.1%
Second compound 0.1 µM, first compound 0.00316 µM
  viability, T/C: 76%
Second compound 0.1 µM, first compound 0.01 µM
  viability, T/C: 6.29%
Second compound 0.1 µM, first compound 0.0316 µM
  viability, T/C: 0.38%
Second compound 0.1 µM, first compound 0.1 µM
  viability, T/C: 0.5%
Second compound 0.316 µM, first compound 0.000316 µM
  viability, T/C: 83.1%
Second compound 0.316 µM, first compound 0.001 µM
  viability, T/C: 85.3%
Second compound 0.316 µM, first compound 0.00316 µM
  viability, T/C: 72.1%
Second compound 0.316 µM, first compound 0.01 µM
  viability, T/C: 6.64%
Second compound 0.316 µM, first compound 0.0316 µM
  viability, T/C: 0.44%
Second compound 0.316 µM, first compound 0.1 µM
  viability, T/C: 0.17%
Second compound 1 µM, first compound 0.000316 µM
  viability, T/C: 75.1%
Second compound 1 µM, first compound 0.001 µM
  viability, T/C: 76.9%
Second compound 1 µM, first compound 0.00316 µM
  viability, T/C: 67.8%
Second compound 1 µM, first compound 0.01 µM
  viability, T/C: 4.77%
Second compound 1 µM, first compound 0.0316 µM
  viability, T/C: 0.26%
Second compound 1 µM, first compound 0.1 µM
  viability, T/C: 0.21%
Second compound 3.16 µM, first compound 0.000316 µM
  viability, T/C: 73.1%
Second compound 3.16 µM, first compound 0.001 µM
  viability, T/C: 72.1%
Second compound 3.16 µM, first compound 0.00316 µM
  viability, T/C: 61%
Second compound 3.16 µM, first compound 0.01 µM
  viability, T/C: 3.44%
Second compound 3.16 µM, first compound 0.0316 µM
  viability, T/C: 3.87%
Second compound 3.16 µM, first compound 0.1 µM
  viability, T/C: 0.21%
Second compound 10 µM, first compound 0.000316 µM
  viability, T/C: 66.1%
Second compound 10 µM, first compound 0.001 µM
  viability, T/C: 67.6%
Second compound 10 µM, first compound 0.00316 µM
  viability, T/C: 70.9%
Second compound 10 µM, first compound 0.01 µM
  viability, T/C: 3.06%
Second compound 10 µM, first compound 0.0316 µM
  viability, T/C: 0.15%
Second compound 10 µM, first compound 0.1 µM
  viability, T/C: 0.18%
